For experiment [1], the target named is T1, human TLR7 (Homo sapiens, UniProt Q9NYK1).
T1 construct: host or cells: HEK-Blue TLR7 cells (engineered human embryonic kidney cells)
T1 sequence (Q9NYK1 27-1049): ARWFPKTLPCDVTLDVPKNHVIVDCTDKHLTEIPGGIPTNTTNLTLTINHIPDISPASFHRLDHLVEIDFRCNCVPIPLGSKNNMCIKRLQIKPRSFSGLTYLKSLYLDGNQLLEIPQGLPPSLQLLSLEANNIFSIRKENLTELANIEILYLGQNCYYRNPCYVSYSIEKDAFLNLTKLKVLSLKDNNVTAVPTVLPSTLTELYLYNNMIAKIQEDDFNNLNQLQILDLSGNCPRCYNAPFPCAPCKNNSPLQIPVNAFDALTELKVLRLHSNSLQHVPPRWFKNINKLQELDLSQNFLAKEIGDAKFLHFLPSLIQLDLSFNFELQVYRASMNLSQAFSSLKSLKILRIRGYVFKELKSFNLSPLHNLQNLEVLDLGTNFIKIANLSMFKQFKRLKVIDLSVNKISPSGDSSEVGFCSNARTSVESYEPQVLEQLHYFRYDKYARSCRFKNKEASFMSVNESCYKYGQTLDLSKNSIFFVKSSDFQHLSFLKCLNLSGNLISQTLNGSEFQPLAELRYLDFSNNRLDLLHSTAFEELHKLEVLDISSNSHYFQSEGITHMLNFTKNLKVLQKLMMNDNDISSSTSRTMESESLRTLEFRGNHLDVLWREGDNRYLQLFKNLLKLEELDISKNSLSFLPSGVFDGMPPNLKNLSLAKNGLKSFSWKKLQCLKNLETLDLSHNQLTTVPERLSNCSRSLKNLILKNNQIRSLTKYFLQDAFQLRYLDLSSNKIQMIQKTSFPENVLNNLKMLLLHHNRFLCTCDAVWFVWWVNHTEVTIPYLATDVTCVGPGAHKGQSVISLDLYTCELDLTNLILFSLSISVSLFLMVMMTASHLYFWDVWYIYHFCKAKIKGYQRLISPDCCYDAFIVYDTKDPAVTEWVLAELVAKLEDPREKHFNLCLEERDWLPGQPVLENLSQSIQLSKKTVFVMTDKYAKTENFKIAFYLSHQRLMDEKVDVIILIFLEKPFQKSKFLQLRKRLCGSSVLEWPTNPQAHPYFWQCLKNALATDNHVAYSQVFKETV
The experiment in a line: HEK-Blue TLR7 reporter assay (SEAP reporter). The following applies: HEK-Blue TLR7 cells, 18 h treatment, SEAP readout; average if more than one assay; read-out: TLR7 Agonism HEK Blue ™ Assay EC50. It counts as cell-based. The text has this:
Table A presents biological activity data for compounds disclosed herein. One set of data relates TLR7 agonism activity using the HEK-Blue™ TLR7 reporter assay, as described in Example 11 hereinbelow. Another set of data relates to the induction of interleukin 6 (IL-6), a cytokine that plays an important role in the TLR7 pathway. […] In some instances, more that one TLR7 agonism or IL-6 induction assay was made; if so, the reported value is an average.
This example describes a method for assaying TLR7 agonist activity of the compounds disclosed in this specification.
HEK-Blue™ TLR7 cells were added to each well of a 384-well tissue-culture plate (15,000 cells per well) and incubated 16-18 h at 37° C., 5% CO2. Compounds (100 nl) were dispensed into wells containing the HEK-Blue™ TLR cells and the treated cells were incubated at 37° C., 5% CO2. After 18 h treatment ten microliters of freshly-prepared Quanti-Blue™ reagent (Invivogen) was added to each well, incubated for 30 min (37° C., 5% CO2) and SEAP levels measured using an Envision plate reader (OD=620 nm). […] EC50's can be determined with software such as Graphpad Prism™.
(Reporter assays use an easily measured gene product as a stand-in for the process of interest.)

Experiment [2] relates to interleukin 6 (IL-6). The experiment is described as follows: Interleukin 6 induction assay in human whole blood (AlphaLISA). It counts as cell-based. As to conditions: 20 h at 37° C., 100% set by resiquimod reference at 10 μM, average if more than one assay, read-out: IL-6 Induction EC50 (nM) (normalized 10 μM). The text has this: Table A presents biological activity data for compounds disclosed herein. One set of data relates TLR7 agonism activity using the HEK-Blue™ TLR7 reporter assay, as described in Example 11 hereinbelow. Another set of data relates to the induction of interleukin 6 (IL-6), a cytokine that plays an important role in the TLR7 pathway. […] In some instances, more that one TLR7 agonism or IL-6 induction assay was made; if so, the reported value is an average. This example describes a method for assaying interleukin 6 (IL 6) induction by compounds disclosed in this specification. Compounds suspended in DMSO were transferred to individual wells of a Matrix Technologies clear, V-bottom 384-well plate using ECHO acoustic liquid handling technology (25 nL per well). Human whole-blood samples (25 uL) were added to each well using a CyBio FeliX liquid handling instrument and the plate was shaken on a plate shaker for three minutes before incubating the reaction mixtures at 37° C. for 20 h. Basel RPMI 1640 medium (supplemented with L-glutamine) was then added to each well (25 uL per well) prior to liberating plasma from each sample by centrifugation (450×g, 5 min, ambient temperature). Treated plasma samples (3 uL) were subsequently transferred to individual wells of a white, shallow, 384-well ProxiPlate (PerkinElmer) using the FeliX liquid handling instrument and their IL6 levels were measured using AlphaLISA technology as described by the manufacturer (PerkinElmer).
In general terms: In Alpha technology, singlet oxygen from a donor bead excites a nearby acceptor bead.

Like-named read-outs stand apart in the source and are kept apart here.

On to `Nc1nc2nc3c1nc(O)n3Cc1ccc(-c3ccc(CNC4CCC4)cc3)c(c1)C/C=C\CCO2` [IIb-11], for which the EC50 (commonly the concentration giving half of the maximal effect) came out at 0.33 nM in experiment [1] and 0.68 nM in experiment [2] (Homo sapiens, 20 h).
As for `Nc1nc2nc3c1nc(O)n3Cc1ccc(-c3ccc(CNC4CCC4)cc3)c(c1)CCCCCO2` [IIb-12], the EC50 in experiment [1] is 4.2 nM; in experiment [2] (Homo sapiens, 20 h), 13 nM.
Turning to `Nc1nc2nc3c1nc(O)n3Cc1ccc(-c3cnc(CNC4CCC4)s3)c(c1)C/C=C/CCO2` [IIb-13], the EC50 in experiment [1] was 0.24 nM; in experiment [2] (Homo sapiens, 20 h) it was 4.3 nM.
On to `Nc1nc2nc3c1nc(O)n3Cc1ccc(-c3cc(CNC4CCC4)[nH]n3)c(c1)C/C=C/CCO2` [IIb-14], for which the EC50 in experiment [1] is 3 nM; in experiment [2] (Homo sapiens, 20 h), 5.3 nM.
The corresponding values for `Nc1nc2nc3c1nc(O)n3Cc1ccc(-c3cc(CNC4CCC4)[nH]n3)c(c1)C/C=C\CCO2` [IIb-15] are 0.65 nM and 4.7 nM.
On the same counts, the results for `Nc1nc2nc3c1nc(O)n3Cc1ccc(-c3ccc(CNC4CCC4)cc3)c(c1)C/C=C/CCCO2` [IIb-16] are 1.2 nM and 3.6 nM.
On to `Nc1nc2nc3c1nc(O)n3Cc1ccc(-c3ccc(CNC4CCC4)cc3)c(c1)C/C=C\CCCO2` [IIb-17], for which the EC50 came to 0.91 nM in experiment [1] and 0.99 nM in experiment [2] (Homo sapiens, 20 h).
In the case of `Nc1nc2nc3c1nc(O)n3Cc1ccc(-c3ccc(CNC4CCC4)cc3)c(c1)CCCCCCO2` [IIb-18], the EC50 in experiment [1] was found to be 3.8 nM; in experiment [2] (Homo sapiens, 20 h), 34 nM.
Turning to `Nc1nc2nc3c1nc(O)n3Cc1ccc(-c3ccc(CNC4CCC4)cc3)c(c1)OCCCCO2` [IIb-19], the EC50 in experiment [1] came out at 1 nM; in experiment [2] (Homo sapiens, 20 h), 1.4 nM.
Regarding `Nc1nc2nc3c1nc(O)n3Cc1ccc(-c3ccc(CNC4CCC4)cc3)c(c1)OCCCO2` [IIb-20], the EC50 in experiment [1] came to 56 nM; in experiment [2] (Homo sapiens, 20 h) it was 150 nM.
On to `Nc1nc2nc3c1nc(O)n3Cc1ccc(-c3ccc(CNC4CC(O)C4)cc3)c(c1)C/C=C\CCO2` (centres unmarked) [IIb-22], for which the EC50 in experiment [1] came to 0.42 nM; in experiment [2] (Homo sapiens, 20 h) it was 1.4 nM.
Turning to `Nc1nc2nc3c1nc(O)n3Cc1ccc(-c3ccc(CNC4CC(O)C4)cc3)c(c1)C/C=C/CCO2` (centres unmarked) [IIb-23], the EC50 in experiment [1] is 0.81 nM; in experiment [2] (Homo sapiens, 20 h), 2 nM.
On to `Nc1nc2nc3c1nc(O)n3Cc1ccc(-c3ccc(CNC4CC(O)C4)cc3)c(c1)C/C=C/CCO2` (centres unmarked) [IIb-24], for which the EC50 in experiment [1] was 0.68 nM; in experiment [2] it was 2.7 nM.
With `Nc1nc2nc3c1nc(O)n3Cc1ccc(-c3ccc(CNC4CC(F)(F)C4)cc3)c(c1)C/C=C/CCO2` [IIb-25], the EC50 in experiment [1] worked out at 1.5 nM; in experiment [2] (Homo sapiens, 20 h) it was 0.81 nM.
Consider `CC1(NCc2ccc(-c3ccc4cc3C/C=C/CCOc3nc(N)c5nc(O)n(c5n3)C4)cc2)CCC1` [IIb-26], for which the EC50 in experiment [1] is 0.26 nM; in experiment [2] (Homo sapiens, 20 h), 1 nM.
The corresponding values for `CC(=O)N1CC(NCc2ccc(-c3ccc4cc3C/C=C\CCOc3nc(N)c5nc(O)n(c5n3)C4)cc2)C1` [IIb-27] are 0.62 nM and 4 nM.
Consider `Nc1nc2nc3c1nc(O)n3Cc1ccc(-c3cccc(C(=O)NC4CNC4)c3)c(c1)C/C=C\CCO2` [IIb-29], for which the EC50 in experiment [1] was 3.2 nM; in experiment [2] (Homo sapiens, 20 h), 24 nM.
Take `Nc1nc2nc3c1nc(O)n3Cc1ccc(-c3ccc(C(=O)NC4CNC4)cc3)c(c1)C/C=C\CCO2` [IIb-30]: the EC50 is 1.6 nM in experiment [1] and 36 nM in experiment [2] (Homo sapiens, 20 h).
Consider `Nc1nc2nc3c1nc(O)n3Cc1ccc(-c3cccc(C(=O)NC4CNC4)c3)c(c1)C/C=C/CCO2` [IIb-31], for which the EC50 in experiment [1] stood at 6.8 nM; in experiment [2] (Homo sapiens, 20 h), 28 nM.
Regarding `Nc1nc2nc3c1nc(O)n3Cc1ccc(-c3ccc(C(=O)NC4CNC4)cc3)c(c1)C/C=C/CCO2` [IIb-32], the EC50 was 4.1 nM in experiment [1] and 32 nM in experiment [2] (Homo sapiens, 20 h).
The corresponding values for `Nc1nc2nc3c1nc(O)n3Cc1ccc(-c3ccc(CNC4CCOCC4)cc3)c(c1)C/C=C\CCO2` [IIb-34] are 0.12 nM and 0.76 nM.
On to `Nc1nc2nc3c1nc(O)n3Cc1ccc(-c3cnn(CCN4CCOCC4)c3)c(c1)C/C=C/CCO2` [IIb-37], for which the EC50 in experiment [1] was determined as 3.8 nM; in experiment [2] (Homo sapiens, 20 h) it was 180 nM.

Source of the values: patent publication US11485741B2, “Macrocyclic toll-like receptor 7 (TLR7) agonists” (BRISTOL-MYERS SQUIBB COMPANY, priority 2018, dated 2022).
